The test system of experiment [1] is PC-3. Also noted: method as in PMID 24366574. Conditions: 48 h, MTT method; read-out: Value previously reported (IC50) PC-3; cited from earlier work. For orientation: Tetrazolium dyes change colour on reduction, which living cells bring about.
Experiment [2] concerns LNCaP. Also noted: method as in PMID 17541592. To be noted: 48 h, SRB method; read-out: Value previously reported (IC50) LNCaP; cited from earlier work. In general terms: The SRB assay estimates cell density from bound dye.
Experiment [3] concerns PC-3. Also noted: method as in PMID 17541592. To be noted: 72 h, SRB method; read-out: Value previously reported (IC50) PC-3; cited from earlier work.
The subject of experiment [4] is PNT-2 cell line. As to the kind of experiment: MTT cytotoxicity assay, PNT-2 cells. It counts as cell-based, human. Conditions: prostate non-cancer cells, read-out: Half maximal inhibitory concentration (IC50) PNT-2. On the procedure: (§1) The human prostate cancer (PC-3 and LNCaP) and non-tumorigenic (PNT-2) cell lines were obtained from the ECCAC Culture Collections and supplied by Sigma-Aldrich Chemical S.A. (Sintra, Portugal). They were cultured as monolayers, at 37 °C, in a humidified atmosphere of 5% CO2. The cultures were maintained in RPMI-1640 culture medium, supplemented with 10% (v/v) heat-inactivated FBS and 1% (v/v) penicillin/streptomycin. The cells were subcultured at 80% confluence, using 0.05% trypsin-EDTA (1×) in PBS.
(§2) For all cell lines (PC-3, LNCaP and PNT-2), cell cultures were established in 96-well plates (100 µL/well) at a density of 3 × 10^4 cells/cm^2, and were allowed to attach for 24 h. Triplicates were treated for different incubation periods (three independent experiments) with a range of concentrations between 2 and 32 µM of the tested compounds (cisplatin and Pd2Spm). According to the population doubling time for all cell lines (ca. 24 h), 24, 48, and 72 h timepoints after drug administration were chosen.
In order to evaluate cell viability, the MTT assay was used. […] After 3 h of incubation at 37 °C, the formazan crystals were solubilized in DMSO (100 µL), and the absorbance was measured at 570 nm.
Cells viability data results are expressed as mean ± standard error of the mean (SEM) and compared with non-treated controls. […]

Experiment [5] has as its system PC-3 cell line. As to the kind of experiment: MTT cytotoxicity assay, PC-3 cells. The class given is cell-based, human. Conditions: prostate cancer cells, read-out: Half maximal inhibitory concentration (IC50) PC-3. The method, then: as §1, §2
(§3) In order to evaluate cell viability, the MTT assay was used. Briefly, at each time-point, the growth media was removed, cells were washed with PBS and MTT solution (2.5 mg/mL) was added to each well (100 µL). After 3 h of incubation at 37 °C, the formazan crystals were solubilized in DMSO (100 µL), and the absorbance was measured at 570 nm.
(§4) Cells viability data results are expressed as mean ± standard error of the mean (SEM) and compared with non-treated controls. Statistical analysis was carried out through one-way ANOVA followed by Tukey’s multiple comparison test. A p-value < 0.05 was considered statistically significant.

Experiment [6] concerns LNCaP cell line. As to the kind of experiment: MTT cytotoxicity assay, LNCaP cells. It counts as cell-based, human. To be noted: prostate cancer cells, read-out: Half maximal inhibitory concentration (IC50) LNCaP. On the procedure:
as §1, §2, §3, §4

Experiment [7] has as its system PNT-2. Also noted: method as in PMID 34277574. Conditions: 96 h, MTT method; read-out: Value previously reported (IC50) PNT-2; cited from earlier work.

SMILES strings stand for the structures. Read-outs that look alike come from different tables or passages of the source.

Our source for the IC50 values is paper PMC9916163, “Evaluation of the Cytotoxic Effect of Pd2Spm against Prostate Cancer through Vibrational Microspectroscopies” (International Journal of Molecular Sciences, 2023).

With `N.N.[Cl][Pt][Cl]` [Cisplatin, cis-dichlorodiammine platinum(II)], the IC50 in experiment [1] was 10.6 µM; in experiment [2], 3.7 µM; in experiment [3] it was 1 µM; in experiment [4] (48 h incubation) it was 5.2 µM; in experiment [4] (72 h incubation), 2.4 µM; in experiment [5] (24 h incubation), 25.6 µM. Further, the IC50 in experiment [5] (48 h incubation) was 3 µM; in experiment [5] (72 h incubation), 0.7 µM; in experiment [6] (24 h incubation) it was 13.6 µM; in experiment [6] (48 h incubation), 7.3 µM; in experiment [6] (72 h incubation), 2.7 µM; in experiment [7] it was 8.5 µM.
